Test results reported in patent US20140051679A1, “KINASE INHIBITORS AND METHOD OF TREATING CANCER WITH SAME” (UNIVERISTY HEALTH NETWORKS, priority 2011, published 2014).

Legend:
[1] = system: HCT116 colon cancer cells; assay: Cell growth inhibition, Sulforhodamine B assay, HCT116; type: cell-based; settings: Homo sapiens, HCT-116, 120 h, 5 days culture, SRB assay, read-out: Cell Line GI50 Range HCT116
[2] = system: OVCAR-3 ovarian cancer cells; assay: Cell growth inhibition, Sulforhodamine B assay, OVCAR-3; type: cell-based; settings: Homo sapiens, 120 h, 5 days culture, SRB assay, read-out: Cell Line GI50 Range OVCAR-3
[3] = system: MDA-MB-231 breast cancer cells; assay: Cell growth inhibition, Sulforhodamine B assay, MDA-MB-231; type: cell-based; settings: Homo sapiens, 120 h, 5 days culture, SRB assay, read-out: Cell Line GI50 Range MDA-MB-231
human TTK = target: T1, human TTK (Homo sapiens, UniProt P33981); assay: TTK inhibition assay (indirect ELISA); type: biochemical; settings: GST-TTK 0.68 nM, 16 μM ATP; read-out: IC50 Ranges TTK
T1 construct: amino terminal GST fusion of full length human TTK; purchased Invitrogen
T1 sequence (P33981 1-857): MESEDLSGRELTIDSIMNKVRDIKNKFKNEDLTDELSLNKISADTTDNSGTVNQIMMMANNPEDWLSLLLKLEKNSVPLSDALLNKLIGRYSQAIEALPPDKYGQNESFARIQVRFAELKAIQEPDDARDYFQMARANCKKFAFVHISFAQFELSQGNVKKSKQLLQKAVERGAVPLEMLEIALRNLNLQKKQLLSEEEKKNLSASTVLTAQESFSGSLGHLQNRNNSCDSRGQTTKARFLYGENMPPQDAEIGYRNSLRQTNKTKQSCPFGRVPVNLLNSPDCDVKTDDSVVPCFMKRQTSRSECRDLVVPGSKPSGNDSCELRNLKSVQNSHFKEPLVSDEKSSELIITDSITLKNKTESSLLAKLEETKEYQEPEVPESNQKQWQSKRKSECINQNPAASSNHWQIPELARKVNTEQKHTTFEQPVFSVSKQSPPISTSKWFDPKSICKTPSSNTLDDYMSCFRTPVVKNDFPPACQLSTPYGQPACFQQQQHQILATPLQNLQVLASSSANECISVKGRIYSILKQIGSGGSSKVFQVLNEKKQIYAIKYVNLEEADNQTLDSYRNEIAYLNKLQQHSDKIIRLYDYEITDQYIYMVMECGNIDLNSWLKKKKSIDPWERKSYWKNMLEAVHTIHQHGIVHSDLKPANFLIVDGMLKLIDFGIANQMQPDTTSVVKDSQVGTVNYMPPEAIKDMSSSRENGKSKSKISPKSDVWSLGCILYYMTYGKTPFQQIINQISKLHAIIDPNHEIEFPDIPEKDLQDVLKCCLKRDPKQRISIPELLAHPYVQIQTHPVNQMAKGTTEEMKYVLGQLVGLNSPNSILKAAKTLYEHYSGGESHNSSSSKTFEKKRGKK

Aurora B = target: T2, Aurora B (Homo sapiens, UniProt Q96GD4); assay: Aurora B inhibition assay (Z-Lyte); type: biochemical; settings: 28 nM Aurora B, 128 μM ATP; read-out: IC50 Ranges Aurora B
T2 construct: purchased Invitrogen PV3970
T2 sequence (Q96GD4 whole entry): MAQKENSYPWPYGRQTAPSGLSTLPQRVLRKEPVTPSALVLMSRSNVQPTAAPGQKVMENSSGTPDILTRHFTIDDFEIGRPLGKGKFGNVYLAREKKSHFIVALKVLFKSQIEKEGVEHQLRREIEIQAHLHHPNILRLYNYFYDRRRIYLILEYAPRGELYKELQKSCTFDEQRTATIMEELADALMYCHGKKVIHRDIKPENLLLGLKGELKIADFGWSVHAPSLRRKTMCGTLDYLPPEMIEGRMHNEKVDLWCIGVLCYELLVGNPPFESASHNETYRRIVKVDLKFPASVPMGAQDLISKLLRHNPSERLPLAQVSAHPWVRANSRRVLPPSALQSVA
Protocol: Aurora B inhibition was determined using the Z-Lyte assay kit from Invitrogen. The assay was performed using the recommended manufacturer's instructions with 128 μM ATP and 28 nM Aurora B (Invitrogen cat #PV3970). The % inhibition values were determined according to the manufacturer's directions and IC50 values were obtained using a non-linear 4 point logistic curve fit (XLfit4, IDBS)

[4] = system: MDA-MB-468 breast cancer cells; assay: Cell growth inhibition, Sulforhodamine B assay, MDA-MB-468; type: cell-based; settings: Homo sapiens, 120 h, 5 days culture, SRB assay, read-out: Cell Line GI50 Range MDA-MB-468
HT29 colon cancer cells = assay: Cell growth inhibition, Sulforhodamine B assay, HT29; type: cell-based; settings: Homo sapiens, HT-29, 120 h, 5 days culture, SRB assay, read-out: Cell Line GI50 Range HT29
human PLK4 = target: T3, human PLK4 (Homo sapiens, UniProt O00444); assay: PLK4 inhibition assay (indirect ELISA); type: biochemical; settings: GST-PLK4 4 nM, 15 μM ATP; read-out: IC50 Ranges PLK4
T3 construct: amino terminal GST fusion of residues 1-391 of human PLK4; made in house; host or cells: E. coli
T3 sequence (O00444 1-391): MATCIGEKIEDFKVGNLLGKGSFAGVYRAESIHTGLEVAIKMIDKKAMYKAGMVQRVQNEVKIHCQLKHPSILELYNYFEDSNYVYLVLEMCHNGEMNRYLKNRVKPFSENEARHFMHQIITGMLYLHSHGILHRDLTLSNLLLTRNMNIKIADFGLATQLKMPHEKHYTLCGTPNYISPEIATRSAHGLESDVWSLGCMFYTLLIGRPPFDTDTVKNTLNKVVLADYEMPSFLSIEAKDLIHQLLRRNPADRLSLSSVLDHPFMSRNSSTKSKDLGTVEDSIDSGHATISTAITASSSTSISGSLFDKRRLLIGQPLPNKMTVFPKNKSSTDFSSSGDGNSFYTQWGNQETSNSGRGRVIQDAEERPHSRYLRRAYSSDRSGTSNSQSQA
Summary of the method: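 Compounds were tested either at a single 10 μM dose or across 10-point titrations (typically 0.5 to 0.001 μM), preincubated 15 min with 4 nM GST-PLK4 (human 1-391, dephosphorylated) before 15 μM ATP was added. MBP substrate phosphorylation over 30 min, pH 7.5 HEPES/MgCl2 buffer, read by HRP/TMB ELISA (450 nm). % inhibition vs. high-activity control; IC50 by logistic fit.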

GI50 [1] [µM]	GI50 [2] [µM]	GI50 [3] [µM]	IC50 (human TTK) [µM]	IC50 (Aurora B) [µM]	GI50 [4] [µM]	GI50 (HT29 colon cancer cells) [µM]	IC50 (human PLK4) [µM]	SMILES
≤ 5	5 to 20	≤ 5	≤ 5	≤ 5	≤ 5	≤ 5	≤ 5	O=C(Nc1ccc2[nH]nc(-c3ccc(OC4CCNCC4)cc3)c2c1)C(c1ccsc1)N1CCCC1 (stereo not shown) [Example A28, N-(3-(4-(piperidin-4-yloxy)phenyl)-1H-indazol-5-yl)-2-(pyrrolidin-1-yl)-2-(thiophen-3-yl)acetamide]
≤ 5	≤ 5	≤ 5	≤ 5	≤ 5	≤ 5	≤ 5	≤ 5	CN1CCC(Oc2ccc(-c3n[nH]c4ccc(NC(=O)C(c5ccsc5)C5CCCC5)cc34)cc2)CC1 (stereo not shown) [Example A36, 2-cyclopentyl-N-(3-(4-((1-methylpiperidin-4-yl)oxy)phenyl)-1H-indazol-5-yl)-2-(thiophen-3-yl)acetamide]
≤ 5	≤ 5	≤ 5	≤ 5	≤ 5	≤ 5	≤ 5	≤ 5	CN(C)CCCOc1ccc(-c2n[nH]c3ccc(NC(=O)C(c4ccsc4)N4CCCC4)cc23)cc1 (stereo not shown) [Example A43, N-(3-(4-(3-(dimethylamino)propoxy)phenyl)-1H-indazol-5-yl)-2-(pyrrolidin-1-yl)-2-(thiophen-3-yl)acetamide]
≤ 5	5 to 20	≤ 5	≤ 5	≤ 5	≤ 5	≤ 5	≤ 5	O=C(Nc1ccc2[nH]nc(-c3ccc(OCCCN4CCOCC4)cc3)c2c1)C(c1ccsc1)N1CCCC1 (stereo not shown) [Example A45, N-(3-(4-(3-morpholinopropoxy)phenyl)-1H-indazol-5-yl)-2-(pyrrolidin-1-yl)-2-(thiophen-3-yl)acetamide]
≤ 5	≤ 5	≤ 5	≤ 5	≤ 5	≤ 5	≤ 5	≤ 5	O=C(Nc1ccc2[nH]nc(-c3ccc(OC4CCNCC4)c(Cl)c3)c2c1)C(c1ccsc1)N1CCCC1 (stereo not shown) [Example A34, N-(3-(3-chloro-4-(piperidin-4-yloxy)phenyl)-1H-indazol-5-yl)-2-(pyrrolidin-1-yl)-2-(thiophen-3-yl)acetamide]
≤ 5	≤ 5	≤ 5	≤ 5	≤ 5	≤ 5	≤ 5	≤ 5	O=C(Nc1ccc2[nH]nc(-c3ccc(OCCN4CCCC4)cc3)c2c1)C(c1ccsc1)N1CCCC1 (stereo not shown) [Example A44, 2-(pyrrolidin-1-yl)-N-(3-(4-(2-(pyrrolidin-1-yl)ethoxy)phenyl)-1H-indazol-5-yl)-2-(thiophen-3-yl)acetamideamide]
≤ 5	≤ 5	≤ 5	≤ 5	≤ 5	≤ 5	≤ 5	≤ 5	CC[C@@H](NC(=O)c1ccc2[nH]nc(-c3ccc(N4CCOCC4)cc3)c2c1)c1cccs1 [Example A58, (R)-3-(4-morpholinophenyl)-N-(1-(thiophen-2-yl)propyl)-1H-indazole-5-carboxamide]
≤ 5	≤ 5	≤ 5	≤ 5	≤ 5	≤ 5	≤ 5	≤ 5	CN1CCC(Oc2ccc(-c3n[nH]c4ccc(NC(=O)C(c5ccsc5)N5CCCCC5)cc34)cc2)CC1 (stereo not shown) [Example A31, N-(3-(4-((1-methylpiperidin-4-yl)oxy)phenyl)-1H-indazol-5-yl)-2-(piperidin-1-yl)-2-(thiophen-3-yl)acetamide]
≤ 5	≤ 5	≤ 5	≤ 5	≤ 5	≤ 5	≤ 5	≤ 5	C[C@@H](NC(=O)c1ccc2[nH]nc(-c3ccc(OC4CCN(C)CC4)cc3)c2c1)c1cccs1 [Example A55, (R)-3-(4-((1-methylpiperidin-4-yl)oxy)phenyl)-N-(1-(thiophen-2-yl)ethyl)-1H-indazole-5-carboxamide]
≤ 5	≤ 5	≤ 5	≤ 5	≤ 5	≤ 5	≤ 5	≤ 5	C[C@H](NC(=O)c1ccc2[nH]nc(-c3ccc(OC4CCN(C)CC4)cc3)c2c1)C1CCCCC1 [Example A38, (S)—N-(1-cyclohexylethyl)-3-(4-((1-methylpiperidin-4-yl)oxy)phenyl)-1H-indazole-5-carboxamide]
≤ 5	≤ 5	≤ 5	≤ 5	≤ 5	≤ 5	≤ 5	≤ 5	Cc1cc(C)c(NC(=O)Nc2ccc3[nH]nc(-c4ccc(OC5CCN(C)CC5)cc4)c3c2)c(Cl)c1 [Example A77, 1-(2-chloro-4,6-dimethylphenyl)-3-(3-(4-((1-methylpiperidin-4-yl)oxy)phenyl)-1H-indazol-5-yl)urea]
≤ 5	≤ 5	≤ 5	≤ 5	≤ 5	≤ 5	≤ 5	≤ 5	CC(C)N1CCC(Oc2ccc(-c3n[nH]c4ccc(NC(=O)C(c5ccsc5)N5CCCC5)cc34)cc2)CC1 (stereo not shown) [Example A30, N-(3-(4-((1-isopropylpiperidin-4-yl)oxy)phenyl)-1H-indazol-5-yl)-2-(pyrrolidin-1-yl)-2-(thiophen-3-yl)acetamide]
≤ 5	5 to 20	20 to 50	≤ 5	≤ 5	≤ 5	≤ 5	≤ 5	O=C(Nc1ccc2[nH]nc(-c3ccc(N4CCOCC4)cc3)c2c1)C(c1ccsc1)N1CCCCC1 (stereo not shown) [Example A32, N-(3-(4-morpholinophenyl)-1H-indazol-5-yl)-2-(piperidin-1-yl)-2-(thiophen-3-yl)acetamide]
≤ 5	≤ 5	≤ 5	≤ 5	≤ 5	≤ 5	≤ 5	≤ 5	CC[C@@H](NC(=O)c1ccc2[nH]nc(-c3ccc(OC4CCN(C)CC4)cc3)c2c1)c1cccs1 [Example A63, (R)-3-(4-((1-methylpiperidin-4-yl)oxy)phenyl)-N-(1-(thiophen-2-yl)propyl)-1H-indazole-5-carboxamide]
